# Measured values as given in patent US6544964B1, “Method for fixing or separating ions, in particular of lead, using per(3,6-anhydro)cy-clodextrin derivatives” (priority 1997, dated 2003).
# Experiments:
# [1] = Formation of the lead complex in aqueous solution, followed by proton NMR; assay type: binding
# Method: (§1) To an aqueous solution of the permethyl derivative obtained in example 1 is added an aqueous lead nitrate solution in order to obtain an aqueous solution containing 3 mmole/l of permethyl derivative and 1 mmole/l of lead nitrate. The solution obtained is analyzed by nuclear magnetic resonance under the same conditions as in example 1 (500 MHz, D2O, 298 K).
# In this case, the exchange is sufficiently slow compared with the NMR observation time, to observe the two signals corresponding to the free cyclodextrin (FIG. 1(a)) and to the complex (FIG. 1(b)).
# (§2) The same operating procedure as in example 2 is followed, but the aqueous solution incorporates 3 mmole/l of the permethyl derivative of example 1 and 3 mmole/l of lead nitrate.
# (§3) The same operating procedure as in example 3 is followed, but addition also takes place of sodium nitrate so as to obtain an aqueous solution incorporating 3 mmole/l of the permethyl derivative of example 1, 3 mmole/l of lead nitrate and 3 mmole/l of sodium nitrate.
# [2] = Affinity constant for Pb from the NMR results of examples 2 to 4; assay type: binding; conditions: aqueous solution (D2O), 298 K
# Method: as §1, §2, §3
substance,measurement,setting,value
"Hexakis (3,6-Anhydro-2-0-methyl)cyclomaltohexaose [Example 1]",NMR spectrum of the lead complex in presence of sodium ions,"[1]; 3 mmole/l derivative, 3 mmole/l lead nitrate, 3 mmole/l sodium nitrate",not modified
same,lead complexation (respective surfaces of free and complexed parts),"[1]; 3 mmole/l permethyl derivative, 1 mmole/l lead nitrate, D2O, 298 K, 500 MHz, free:complexed 2 for 1",all the lead present is complexed
same,lead complexation (NMR signals),"[1]; 3 mmole/l permethyl derivative, 3 mmole/l lead nitrate, D2O, 298 K",only the signals of the complex are visible
same,affinity constant for Pb,[2],approximately 10^5
"hexakis (3,6-anhydro)cyclomaltohexaose [reference compound]",affinity constant for Pb,[2],approximately 2500
